Source: PubChem BioAssay (NCI)
Where “and” joins values, the source holds several entries; their conditions need not be identical. Equal entries are not always repeated.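 Interpolation was linear, between the two tested concentrations surrounding the appropriate level; five concentrations were tested over 48 hours in 96-well plates. GI50: concentration for 50% inhibition of growth. TGI: concentration producing complete growth inhibition.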

Columns and labels:
Assay in all cases: inhibition of tumour cell growth, NCI panel, 48 h
[1] = test system: 786-0 renal
[2] = test system: A498 renal
[3] = test system: CAKI-1 renal
[4] = test system: CCRF-CEM leukemia
[5] = test system: HCC-2998 colon
[6] = test system: HOP-18 NSCLC
[7] = test system: HOP-92 NSCLC
[8] = test system: MOLT-4 leukemia
[9] = test system: SK-OV-3 ovarian
[10] = test system: SNB-78 CNS

| SMILES | TGI [1] | TGI [2] | TGI [3] | TGI [4] | TGI [5] | TGI [6] | TGI [7] | TGI [8] | TGI [9] | TGI [10] | GI50 [1] [µM] | GI50 [3] | GI50 [5] | GI50 [6] | GI50 [10] | GI50 [2] | GI50 [4] | GI50 [7] | GI50 [8] | GI50 [9] |
| --- | --- | --- | --- | --- | --- | --- | --- | --- | --- | --- | --- | --- | --- | --- | --- | --- | --- | --- | --- | --- |
| CC1(Cl)C(=O)NC(=O)N([C@H]2C[C@H](O)[C@@H](CO)O2)C1N=[N+]=[N-] (some centres undefined) | > 100 µM | > 100 µM | > 100 µM | > 100 µM | > 100 µM | > 100 µM | > 100 µM | > 100 µM | > 100 µM | > 100 µM | – | – | – | – | – | – | – | – | – | – |
| CC(=O)OC1(Sc2ccccc2)CC2[C@H]3COC(C)(C)O[C@H]3CC[C@@]2(C)CC1=O (some centres undefined) | > 100 µM | – | > 100 µM | – | – | – | 86.1 µM | > 100 µM | 95.7 µM | > 100 µM | – | – | – | – | – | – | – | – | – | – |
| O=C(NCCCN1CCN(CCCNC(=O)c2cccc3ccccc23)CC1)c1cccc2ccccc12 | > 100 µM | > 100 µM | > 100 µM | > 100 µM | > 100 µM | > 100 µM | 21.3 µM | > 100 µM | 57.6 µM | > 100 µM | – | – | – | – | – | – | – | – | – | – |
| N.N.N.N.N#N.N#N.[Cl-].[Os+6] | > 100 µM | – | > 100 µM | – | > 100 µM | > 100 µM | – | – | – | > 100 µM | > 100 | > 100 µM | > 100 µM | 23.1 µM | > 100 µM | – | – | – | – | – |
| S=C1SCC2CCCN12 (centres undefined) | > 100 µM | > 100 µM | > 100 µM | > 100 µM | > 100 µM | > 100 µM | > 100 µM | > 100 µM | > 100 µM | > 100 µM | – | – | – | – | – | – | – | – | – | – |
| O=C(c1ccccc1)c1nc2c(Cl)ccc(Cl)c2cc1C(Br)Br | 0.983 µM | – | 3.51 µM | 1.33 µM | 4.92 µM | 3.17 µM | – | 7.13 µM | – | 5.94 µM | – | – | – | – | – | – | – | – | – | – |
| COc1ccc2[nH]c3c(C)c4c(c(C)c3c2c1)CN(C)C=C4 | 4.05 µM | 21.3 µM | 57.5 µM | 34.7 µM | 13.9 µM | 47.7 µM | 19.5 µM | 37.7 µM | 56.6 µM | 4.91 µM | – | – | – | – | – | – | – | – | – | – |
| COCN1COCN(C)C1=O | > 100 µM | > 100 µM | > 100 µM | > 100 µM | > 100 µM | > 100 µM | > 100 µM | – | > 100 µM | > 100 µM | – | – | – | – | – | – | – | – | – | – |
| O=C(CC1(O)C(=O)Nc2ccccc21)c1ccc(Cl)c(Cl)c1 (centres undefined) | > 100 µM | > 100 µM | > 100 µM | > 100 µM | > 100 µM | – | > 100 µM | > 100 µM | > 100 µM | > 100 µM | – | – | – | – | – | – | – | – | – | – |
| CC(C)(C)c1cc(C2c3cc4c(cc3OC(O)(CO)C2C(=O)O)OCO4)cc(C(C)(C)C)c1O (centres undefined) (tested in a mixture with another compound) | 33.8 µM | – | 50.3 µM | 21.9 µM | – | 20.3 µM | 43.7 µM | 20.3 µM | 45.8 µM | – | – | – | – | – | – | – | – | – | – | – |
| N#CN1CC[C@@H]2CC3(CCC2C1)OCCO3 (some centres undefined) | > 100 µM | > 100 µM | > 100 µM | > 100 µM | > 100 µM | > 100 µM | > 100 µM | > 100 µM | > 100 µM | > 100 µM | – | – | – | – | – | – | – | – | – | – |
| CN(C)CCCNc1ccnc2c([N+](=O)[O-])cccc12 | > 100 µM | – | > 100 µM | 96 µM | 27.1 µM | – | – | 66.7 µM | – | > 100 µM | – | – | – | – | – | – | – | – | – | – |
| CC1=CC(=O)NP(=O)(Oc2ccc(Cl)cc2)N1 (centres undefined) | > 100 µM | > 100 µM | > 100 µM | > 100 µM | – | > 100 µM | > 100 µM | > 100 µM | > 100 µM | > 100 µM | – | – | – | – | – | – | – | – | – | – |
| CCC/C=C/C=C/C(=O)OC1/C(=C/C(=O)OC)CC2CC(C(C)O)OC(=O)CC(O)CC3CC(OC(C)=O)C(C)(C)C(O)(CC4C/C(=C/C(=O)OC)CC(/C=C/C(C)(C)C1(O)O2)O4)O3 (centres undefined) | 11 µM and > 12.5 µM | 10.9 µM and 11 µM and > 12.5 µM | 10.9 µM and 11 µM and > 12.5 µM | 10.9 µM and 11 µM and > 12.5 µM | > 10.9 µM and 9 µM and > 12.5 µM | 2.52 µM and 10.8 µM | 10.9 µM and 11 µM and > 12.5 µM | 10.6 µM and 10.5 µM and > 12.5 µM | > 10.9 µM and 11 µM and > 12.5 µM | 7.22 µM and 11 µM | > 12.5 | 2.79 µM and 4.05 µM and > 12.5 µM | > 10.9 µM and 4.72 µM and > 12.5 µM | 1.76 µM and 6.05 µM | 5.56 µM and 10.3 µM | 7.67 µM and 9.27 µM | 8.79 µM and 5.35 µM and > 12.5 µM | 7.79 µM and 5.61 µM and 4.84 µM | 5.48 µM and 3.26 µM and > 12.5 µM | > 10.9 µM and 8.51 µM and > 12.5 µM |
| CCOC(=O)c1ccc(N=Cc2ccc(N(CCC#N)S(=O)(=O)c3ccccc3)cc2C)cc1 | > 100 µM | > 100 µM | > 100 µM | > 100 µM | 58.1 µM | – | – | > 100 µM | > 100 µM | > 100 µM | – | – | – | – | – | – | – | – | – | – |
| Cc1nc(-n2nc(-c3ccccc3)cc2-c2ccccc2)sc1C(=O)CC(=O)C(=O)Nc1ccc(Cl)c(Cl)c1 | > 100 µM | > 100 µM | > 100 µM | > 100 µM | > 100 µM | > 100 µM | – | > 100 µM | > 100 µM | > 100 µM | – | – | – | – | – | – | – | – | – | – |
| COc1ccc2nc3cc(Cl)ccc3c(Sc3ccc(N)cc3)c2c1 | 19.8 µM | 76.3 µM | 29.6 µM | 18.7 µM | 25.1 µM | 25.3 µM | 39.7 µM | 9.65 µM | 18.3 µM | 34 µM | – | – | – | – | – | – | – | – | – | – |
| CC(=O)/C=C1\CC(=O)N(C)c2ccccc2N1 | > 100 µM | – | > 100 µM | > 100 µM | > 100 µM | – | > 100 µM | > 100 µM | > 100 µM | > 100 µM | – | – | – | – | – | – | – | – | – | – |
| O=C(O)CCC(O)=C1S(=O)(=O)OCCOS1(=O)=O | > 100 µM | > 100 µM | > 100 µM | – | > 100 µM | > 100 µM | > 100 µM | > 100 µM | > 100 µM | > 100 µM | – | – | – | – | – | – | – | – | – | – |
| COc1ccc2c(c1OC)C(=O)C2 | > 100 µM | – | – | > 100 µM | – | > 100 µM | – | > 100 µM | > 100 µM | – | – | – | – | – | – | – | – | – | – | – |
| Cn1c(=O)nc2n(-c3ccc(Br)cc3)c3ccccc3nc-2c1=O | 22.3 µM | 26.9 µM | 33 µM | 19.9 µM | 10.8 µM | 18.8 µM | – | 28.7 µM | > 100 µM | 35.1 µM | – | – | – | – | – | – | – | – | – | – |
| Cc1nc2ccccc2c(=O)n1/N=C(\N=Nc1ccc(Cl)cc1)c1cccc(-c2ccco2)c1 | > 100 µM | > 100 µM | 98.4 µM | 88.2 µM | – | > 100 µM | 55.4 µM | > 100 µM | > 100 µM | – | – | – | – | – | – | – | – | – | – | – |
